Experimental data reported in patent US20050175550A1, “Compositions for oral use” (priority 2000, published 2005).
Converted amounts (≈) assume the structure as drawn.

Columns and labels:
Assay in all cases: MIC by agar plate dilution method on standard strains (Example 3)
Format in all cases: cell-based
Details in all cases: read-out: MIC
[1] = test system: Enterococcus faecium ATCC19434
Experimental: (§1) Drug solutions at a concentration 10 times as high as the maximum applicable concentration were prepared as original solutions of test drugs given in Table 2 (as to solvents used for this purpose, reference should be made also to Table 2). Serial two-fold dilution series of the original solutions were prepared at desired stages, and 1 ml each of the diluted drug solutions was added to 9 ml of media given in Table 3 to prepare drug plates. […] • 1) Bacterial solutions stocked at −80° C. were inoculated on agar media (as to media used, reference should be made to Table 3), and then incubated at 37° C. overnight. When desired, subculturing was conducted once more on the same agar media (by overnight incubation at 37° C.). • 2) Colonies growing on the agar media were sampled by a platinum loop, suspended in liquid media (reference should be made to Table 3) and statically incubated at 37° C. for 18 hours (preculturing). • 3) Preculturing was continued up to McFarland 0.5 (McFarland 0.5=about 10^8 CFU/ml), and then the culture broths were diluted with Muellar Hinton Broth to make 10^6 CFU/ml. 5 μl each of the diluted solutions were inoculated on the above-mentioned drug plates by an inoculator Microplanter. […] Thus, bacterial solutions at about 10^8 CFU/ml can be easily prepared by use of McFarland 0.5. Bacterial solutions at such a turbidity are commercially available, but can be easily prepared.

[2] = test system: Bacillus subtilis ATCC6633
Experimental: as §1

[3] = test system: Staphylococcus aureus ATCC29247
Experimental: as §1

[4] = test system: Streptococcus pneumoniae ATCC6301
Experimental: as §1

[5] = test system: Streptococcus pneumoniae ATCC6302
Experimental: as §1

[6] = test system: Moraxella (Branhamella) catarrhalis ATCC25240
Experimental: as §1

[7] = test system: Moraxella (Branhamella) catarrhalis ATCC43617
Experimental: as §1

[8] = test system: Streptococcus pneumoniae ATCC6306
Experimental: as §1

[9] = test system: Haemophilus influenzae ATCC49247
Experimental: as §1

[10] = test system: Pseudomonas aeruginosa ATCC27853
Experimental: as §1

[11] = test system: Haemophilus influenzae ATCC33391
Experimental: as §1

[12] = test system: Staphylococcus aureus ATCC6538P
Experimental: as §1

[13] = test system: Escherichia coli ATCC25922
Experimental: as §1

[14] = test system: Enterococcus faecalis ATCC29247
Experimental: as §1

[15] = test system: Klebsiella pneumoniae ATCC700603
Experimental: as §1

[16] = test system: Streptococcus pyogenes ATCC12353
Experimental: as §1

[17] = test system: Streptococcus pneumoniae ATCC6303
Experimental: as §1

[18] = test system: Streptococcus pyogenes ATCC12385
Experimental: as §1

[19] = test system: Escherichia coli ATCC35218
Experimental: as §1

[20] = test system: Streptococcus pneumoniae ATCC49619
Experimental: as §1

[21] = test system: Streptococcus pyogenes ATCC12344
Experimental: as §1

[22] = test system: Moraxella (Branhamella) catarrhalis ATCC25238
Experimental: as §1

[23] = test system: Micrococcus luteus ATCC9341
Experimental: as §1

[24] = test system: Haemophilus influenzae ATCC33533
Experimental: as §1

[25] = test system: Serratia marcescens ATCC13880
Experimental: as §1

[26] = test system: Streptococcus agalactiae ATCC13813
Experimental: as §1

[27] = test system: Haemophilus influenzae ATCC49766
Experimental: as §1

[28] = test system: Staphylococcus epidermidis ATCC12228
Experimental: (§2) Minimum growth-inhibiting concentrations of trifluoromethionine and other antibacterial drugs on standard strains were determined by an agar plate dilution method according to the standard method of Japanese Society of Chemotherapy.
(§3) Drug solutions at a concentration 10 times as high as the maximum applicable concentration were prepared as original solutions of test drugs given in Table 2 (as to solvents used for this purpose, reference should be made also to Table 2). Serial two-fold dilution series of the original solutions were prepared at desired stages, and 1 ml each of the diluted drug solutions was added to 9 ml of media given in Table 3 to prepare drug plates. Concentration range of the individual drugs used are as follows: trifluoromethionine: 400-0.025 μg/ml (15 stages), tetracycline: 100-0.025 μg/ml (13 stages), and clarithromycin: 100-0.025 μg/ml (13 stages).
(§4) • 1) Bacterial solutions stocked at −80° C. were inoculated on agar media (as to media used, reference should be made to Table 3), and then incubated at 37° C. overnight. When desired, subculturing was conducted once more on the same agar media (by overnight incubation at 37° C.). • 2) Colonies growing on the agar media were sampled by a platinum loop, suspended in liquid media (reference should be made to Table 3) and statically incubated at 37° C. for 18 hours (preculturing). • 3) Preculturing was continued up to McFarland 0.5 (McFarland 0.5=about 10^8 CFU/ml), and then the culture broths were diluted with Muellar Hinton Broth to make 10^6 CFU/ml. 5 μl each of the diluted solutions were inoculated on the above-mentioned drug plates by an inoculator Microplanter.
(§5) Thus, bacterial solutions at about 10^8 CFU/ml can be easily prepared by use of McFarland 0.5. Bacterial solutions at such a turbidity are commercially available, but can be easily prepared. McFarland 0.5 can be obtained by adding 0.5 ml of an aqueous 0.048 mol/l barium chloride solution to 99.5 ml of 1% v/v (0.18 mol/l) sulfuric acid. • 4) The individual bacteria were incubated at 37° C. for 18-20 hours and then the growth was determined in the same manner as in Example 2 to obtain minimum growth-inhibiting concentrations.

[29] = test system: Staphylococcus epidermidis ATCC29886
Experimental: as §2, §3, §4, §5

SMILES	MIC [1]	MIC [2]	MIC [3]	MIC [4]	MIC [5]	MIC [6]	MIC [7]	MIC [8]	MIC [9]	MIC [10]	MIC [11]	MIC [12]	MIC [13]	MIC [14]	MIC [15]	MIC [16]	MIC [17]	MIC [18]	MIC [19]	MIC [20]	further results
CC[C@H]1OC(=O)[C@H](C)[C@@H](O[C@H]2C[C@@](C)(OC)[C@@H](O)[C@H](C)O2)[C@H](C)[C@@H](O[C@@H]2O[C@H](C)C[C@H](N(C)C)[C@H]2O)[C@](C)(OC)C[C@@H](C)C(=O)[C@H](C)[C@@H](O)[C@]1(C)O [CAM, Clarithromycin]	1.56 µg/mL (≈ 2.09 µM)	0.1 µg/mL (≈ 0.134 µM)	50 µg/mL (≈ 66.8 µM)	0.05 µg/mL (≈ 0.0668 µM)	0.1 µg/mL (≈ 0.134 µM)	0.2 µg/mL (≈ 0.267 µM)	0.2 µg/mL (≈ 0.267 µM)	0.1 µg/mL (≈ 0.134 µM)	6.25 µg/mL (≈ 8.36 µM)	> 100 µg/mL	6.25 µg/mL (≈ 8.36 µM)	0.2 µg/mL (≈ 0.267 µM)	50 µg/mL (≈ 66.8 µM)	1.56 µg/mL (≈ 2.09 µM)	> 100 µg/mL	0.1 µg/mL (≈ 0.134 µM)	0.05 µg/mL (≈ 0.0668 µM)	0.1 µg/mL (≈ 0.134 µM)	25 µg/mL (≈ 33.4 µM)	0.05 µg/mL (≈ 0.0668 µM)	MIC [21]: 0.05 µg/mL (≈ 0.0668 µM); MIC [22]: 0.1 µg/mL (≈ 0.134 µM); MIC [23]: 0.05 µg/mL (≈ 0.0668 µM); MIC [24]: 3.13 µg/mL (≈ 4.18 µM); MIC [25]: > 100 µg/mL; MIC [26]: 0.05 µg/mL (≈ 0.0668 µM); MIC [27]: 6.25 µg/mL (≈ 8.36 µM); MIC [28]: 0.2 µg/mL (≈ 0.267 µM); MIC [29]: 0.39 µg/mL (≈ 0.521 µM)
CN(C)[C@@H]1C(O)=C(C(N)=O)C(=O)[C@@]2(O)C(O)=C3C(=O)c4c(O)cccc4[C@@](C)(O)[C@H]3C[C@@H]12 [TC, Tetracycline]	0.2 µg/mL (≈ 0.45 µM)	0.2 µg/mL (≈ 0.45 µM)	0.78 µg/mL (≈ 1.76 µM)	0.1 µg/mL (≈ 0.225 µM)	0.2 µg/mL (≈ 0.45 µM)	0.2 µg/mL (≈ 0.45 µM)	0.2 µg/mL (≈ 0.45 µM)	0.2 µg/mL (≈ 0.45 µM)	25 µg/mL (≈ 56.3 µM)	12.5 µg/mL (≈ 28.1 µM)	0.78 µg/mL (≈ 1.76 µM)	0.2 µg/mL (≈ 0.45 µM)	1.56 µg/mL (≈ 3.51 µM)	25 µg/mL (≈ 56.3 µM)	50 µg/mL (≈ 113 µM)	0.2 µg/mL (≈ 0.45 µM)	0.1 µg/mL (≈ 0.225 µM)	0.2 µg/mL (≈ 0.45 µM)	1.56 µg/mL (≈ 3.51 µM)	0.1 µg/mL (≈ 0.225 µM)	MIC [21]: 0.2 µg/mL (≈ 0.45 µM); MIC [22]: 0.2 µg/mL (≈ 0.45 µM); MIC [23]: 0.78 µg/mL (≈ 1.76 µM); MIC [24]: 0.39 µg/mL (≈ 0.878 µM); MIC [25]: 100 µg/mL (≈ 225 µM); MIC [26]: 0.2 µg/mL (≈ 0.45 µM); MIC [27]: 0.78 µg/mL (≈ 1.76 µM); MIC [28]: 50 µg/mL (≈ 113 µM); MIC [29]: 0.39 µg/mL (≈ 0.878 µM)
